# Experimental data from US7238688B2, “Piperidine compounds” (Schering Corporation, priority 2001, dated 2007).
# pKi: −log10 of the molar value. Values joined by “and” are separate entries in the source; they are usually repeats but may differ in a detail not shown here. Identical values can stand only once.
# Target: T1, H3 receptors (Cavia porcellus, UniProt Q9JI35)
# T1 construct: The source of the H3 receptors in this experiment was guinea pig brain; from tissue; host or cells: guinea pig brain membranes
# T1 sequence (Q9JI35 whole entry): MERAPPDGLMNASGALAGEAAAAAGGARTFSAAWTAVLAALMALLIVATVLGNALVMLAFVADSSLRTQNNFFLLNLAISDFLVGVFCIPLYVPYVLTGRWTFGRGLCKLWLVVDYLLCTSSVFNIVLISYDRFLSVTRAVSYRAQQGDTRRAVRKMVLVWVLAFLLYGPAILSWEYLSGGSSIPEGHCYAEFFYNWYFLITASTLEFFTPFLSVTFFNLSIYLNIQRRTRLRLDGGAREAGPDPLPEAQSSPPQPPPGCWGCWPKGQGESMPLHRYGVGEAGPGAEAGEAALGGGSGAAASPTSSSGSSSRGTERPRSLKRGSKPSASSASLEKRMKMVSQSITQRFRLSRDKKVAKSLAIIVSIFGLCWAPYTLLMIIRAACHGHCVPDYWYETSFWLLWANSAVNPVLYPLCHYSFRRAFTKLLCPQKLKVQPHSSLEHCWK
# Test: H3-Receptor Binding Assay
# Details: guinea pig brain membranes; 3 nM [3H]R-α-methyl histamine or 3 nM [3H]N-methyl histamine; 30° C. for 30 min
# Protocol: General Procedure for H3-Receptor Binding Assay
# The source of the H3 receptors in this experiment was guinea pig brain. The animals weighed 400–600 g. The brain tissue was homogenized with a solution of 50 mM Tris, pH 7.5. The final concentration of tissue in the homogenization buffer was 10% w/v. The homogenates were centrifuged at 1,000×g for 10 min. in order to remove clumps of tissue and debris. The resulting supernatants were then centrifuged at 50,000×g for 20 min. in order to sediment the membranes, which were next washed three times in homogenization buffer (50,000×g for 20 min. each). The membranes were frozen and stored at −70° C. until needed.
# All compounds to be tested were dissolved in DMSO and then diluted into the binding buffer (50 mM Tris, pH 7.5) such that the final concentration was 2 μg/ml with 0.1% DMSO. Membranes were then added (400 μg of protein) to the reaction tubes. The reaction was started by the addition of 3 nM[^3H]R-α-methyl histamine (8.8 Ci/mmol) or 3 nM [^3H]N[…] -methyl histamine (80 Ci/mmol) and continued under incubation at 30° C. for 30 min. Bound ligand was separated from unbound ligand by filtration, and the amount of radioactive ligand bound to the membranes was quantitated by liquid scintillation spectrometry.
row,Compound,pKi
1,Nc1cc(CN2CCC(C(=O)N3CCN(S(=O)(=O)c4cc(Cl)cc(Cl)c4)CC3)CC2)ccn1 [Compound 376],7.46 to 9.70
2,O=C(NCCc1ccccc1)c1cccc(CN2CCN(C(=O)C3CCN(Cc4ccncc4)CC3)CC2)c1 [Compound 276],7.46 to 9.70
3,Nc1cc(CN2CCC(C(=O)N3CCN(Cc4cccc(Cl)c4S(=O)(=O)N4CCOCC4)CC3)CC2)ccn1 [Compound 317],7.46 to 9.70
4,O=C(C1CCN(Cc2ccncc2)CC1)N1CCN(Cc2ccccc2Br)CC1 [Compound 93],7.46 to 9.70
5,CN(C)S(=O)(=O)N1CCN(C(=O)C2CCN(Cc3ccnc(N)c3)CC2)CC1 [Compound 367],7.46 to 9.70
6,Nc1cc(CN2CCC(C(=O)N3CCN(Cc4c(F)ccc(F)c4F)CC3)CC2)ccn1 [Compound 306],7.46 to 9.70 and 7.66 to 8.70
7,Cc1noc(C)c1CN1CCN(C(=O)C2CCN(Cc3ccnc(N)c3)CC2)CC1 [Compound 331],7.46 to 9.70
8,Nc1cc(CN2CCC(C(=O)N3CCN(Cc4c(F)cccc4Cl)CC3)CC2)ccn1 [Compound 336],7.46 to 9.70 and 7.66 to 8.70
9,Nc1cc(CN2CCC(C(=O)N3CCN(S(=O)(=O)c4ccccc4Cl)CC3)CC2)ccn1 [Compound 374],7.46 to 9.70 and 7.66 to 8.70

# Other lines, results leading:
row,pKi,Compound
1,7.46 to 9.70 and 7.66 to 8.70,Nc1cc(CN2CCC(C(=O)N3CCN(Cc4cc(-c5ccc(Cl)cc5)on4)CC3)CC2)ccn1 [Compound 333]
2,7.46 to 9.70,Nc1cc(CN2CCC(C(=O)N3CCN(Cc4cc(F)ccc4Br)CC3)CC2)ccn1 [Compound 328]
3,7.46 to 9.70,CN(c1ccc(Cl)cc1)S(=O)(=O)c1cc(F)ccc1CN1CCN(C(=O)C2CCN(Cc3ccnc(N)c3)CC2)CC1 [Compound 343]
4,7.46 to 9.70 and 7.66 to 8.70,Nc1cc(CN2CCC(C(=O)N3CCN(S(=O)(=O)c4ccc(Cl)cc4)CC3)CC2)ccn1 [Compound 366]
5,7.46 to 9.70 and 7.66 to 8.70,CN(C)S(=O)(=O)c1cc(F)ccc1CN1CCN(C(=O)C2CCN(Cc3ccnc(N)c3)CC2)CC1 [Compound 332]
